Experimental findings from ChEMBL document CHEMBL1133758, “Docking-based development of purine-like inhibitors of cyclin-dependent kinase-2” (J Med Chem, 2000) are described below.

Experiment [1] concerns the target Cyclin-dependent kinase 2 (Homo sapiens, UniProt P24941). The experiment in a line: Inhibition of Cyclin-dependent kinase 2.
For experiment [2], the target named is Cyclin-dependent kinase 1 (Homo sapiens, UniProt P06493). Briefly: Inhibition of Cyclin-dependent kinase 1.
Sequence of Cyclin-dependent kinase 1 (P06493 whole entry): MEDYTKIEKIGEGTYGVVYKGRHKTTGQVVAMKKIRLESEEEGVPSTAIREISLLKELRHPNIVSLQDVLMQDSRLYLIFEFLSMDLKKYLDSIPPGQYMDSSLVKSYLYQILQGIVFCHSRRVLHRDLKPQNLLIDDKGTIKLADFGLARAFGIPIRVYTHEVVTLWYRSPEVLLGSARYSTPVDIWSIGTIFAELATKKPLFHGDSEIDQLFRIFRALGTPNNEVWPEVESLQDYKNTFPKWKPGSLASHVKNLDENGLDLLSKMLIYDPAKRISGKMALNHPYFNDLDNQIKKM

As usually defined, the IC50 is the concentration at which inhibition is half-maximal. For the compound `CC(C)n1cnc2c(NC3CCCC3)nc(NCCCO)nc21`, the figures for the IC50 in experiment [1] and in experiment [2] were 900 nM and 2400 nM, respectively.

For `CC(C)n1cnc2c(NC34CC5CC(CC(C5)C3)C4)nc(NCCCO)nc21`, the IC50 in experiment [1] and in experiment [2] was above 100000 nM each time.

In the case of `CC(C)n1cnc2c(N)nc(NCCCO)nc21`, the results for the IC50 in experiment [1] and in experiment [2] were 2400 nM and 10000 nM, respectively.

Compound `CC(C)n1cnc2c(NCc3ccccc3)nc(NC[C@@H](C)O)nc21` showed an IC50 in experiment [1] of 200 nM.

Regarding `CC(C)C(CO)Nc1nc(NCc2cccc(O)c2)c2ncn(C(C)C)c2n1` (stereo unspecified), inhibition in experiment [1] was half-maximal at 30 nM (IC50).

For `CC(C)n1cnc2c(NCc3ccccc3)ncnc21`, the IC50 in experiment [1] worked out at 4500 nM; in experiment [2] it was 3500 nM.

As to `CC(C)n1cnc2c(NCc3ccccc3)nc(NCCCO)nc21` [BOHEMINE], in experiment [1], the IC50 was found to be 800 nM.
